Experiments:
solid malignancy = assay: Dose escalation study in patients, best response / tumor shrinkage; type: in vivo, human
Method: Pharmacokinetic studies and dose escalation studies were conducted in adult patients with metastatic, recurrent, locally, advanced, or unresectable solid malignancy (patients with histologically and/or cytologically confirmed solid malignancy), who received prior anti-cancer treatment(s) until disease progression, at 10 different dose levels of Compound I. Groups 1-7 were administered intravenously on days 1 and 8 of a 4-week cycle at 50, 100, 150, 200, 250, 325, and 475 mg/m^2 (lyophilized formulation), respectively. Groups 8-10 were administered intravenously on days 1,8, and 15 of a 4-week cycle at 325, 475, and 650 mg/m^2 (lyophilized formulation), respectively. Each patient received each dose over 1 hour by IV infusion on days described above.
The duration on therapy at each dose level for evaluable patients is depicted in FIG. 8.
In the study described in Example 3, 18 patients were diagnosed with metastatic breast cancer. […] This study was conducted to evaluate predictive biomarkers of response to Compound I and to explore the relationship between germline HRD aberrations and outcomes of Compound I treatments.
In the study described in Example 3, 12 patients harbored BRCA1 or BRCA2 mutation. From the same group of 12 patients harboring BRCA1 or BRCA2 mutation, 8 patients had breast cancer (FIG. 5). Of the 8 patients, 6 patient harbored BRCA2 mutation and had breast cancer (FIG. 6). In FIGS. 4-6, each bar represents an individual in a treatment Group as indicated by the Group number corresponding to the treatment Groups in Example 3.

SK-OV-3 = assay: Alamar Blue cell viability assay, SK-OV-3; type: cell-based; settings: Homo sapiens; SK-OV-3, Ovarian
Method: The effect of Compound I on cell viability was assessed by Alamar Blue assay of metabolic activity in various cancer cell lines.

[1] = of the 40 patients treated, 34 discontinued

**Q.** How did the “Response of a patient who harbored a PALB2 mutation” value (solid malignancy; Group 10, 650 mg/m^2, CT scans, 6-month follow-up) turn out when `Cc1cnc(CNC(=O)c2c(=O)c3ccc(N4CCCN(C)CC4)nc3n3c2sc2ccccc23)cn1` [Compound I, 2-(4-Methyl-[1,4]diazepan-1-yl)-5-oxo-5H-7-thia-1,11b-diaza-benzo[c]fluorene-6-carboxylic acid (5-methyl-pyrazin-2-ylmethyl)-amide] was run?
**A.** partial response (PR)

**Q.** And the “Patients discontinued due to objective progressive disease” value (solid malignancy; [1])?
**A.** 29

**Q.** And the “Patients discontinued due to symptomatic progression of disease” value (solid malignancy; [1])?
**A.** 4

**Q.** And the “Patients with stable disease as best response for >4 cycles” value (solid malignancy; of the 40 patients treated, 2 with breast cancer, 4 germline BRCA2, 2 somatic BRCA1/2)?
**A.** 6 patients

**Q.** What about the “Patients with confirmed partial response as best response” value (solid malignancy; of the 40 patients treated, 3 with breast cancer, 2 germline BRCA2, 1 germline BRCA2 VUS, germline PALB2) of the same compound?
**A.** 4 patients

**Q.** And the “Outcome in 8 patients who had received prior PARP inhibitor therapy” value (solid malignancy; only 2 of them had BRCA2 mutations)?
**A.** all had early progression after ≤2 cycles

**Q.** What about the “Dose at which patients with BRCA2 mutation responded, tumor shrinkage observed” value (solid malignancy; patients with BRCA2 mutation) of the same compound?
**A.** greater than or equal to 150 mg/m^2

**Q.** And the EC50 (SK-OV-3)?
**A.** 78 nM

From patent US20210046071A1, “TETRACYCLIC COMPOUNDS AND THEIR SALTS, COMPOSITIONS, AND METHODS FOR THEIR USE” (Senhwa Biosciences, Inc., priority 2019, published 2021)
